Source: patent publication US7202084B2, “Beta-alanine N-methyltransferase” (University of Florida Research Foundation, Inc., priority 2001, dated 2007)

Columns and labels:
[1] = biological target: T1, L. latifolium NMTase (Limonium latifolium, UniProt Q84N56); experiment: Kinetic characterization of NMTase, radiometric assay; format: biochemical
T1 sequence (Q84N56 1-375): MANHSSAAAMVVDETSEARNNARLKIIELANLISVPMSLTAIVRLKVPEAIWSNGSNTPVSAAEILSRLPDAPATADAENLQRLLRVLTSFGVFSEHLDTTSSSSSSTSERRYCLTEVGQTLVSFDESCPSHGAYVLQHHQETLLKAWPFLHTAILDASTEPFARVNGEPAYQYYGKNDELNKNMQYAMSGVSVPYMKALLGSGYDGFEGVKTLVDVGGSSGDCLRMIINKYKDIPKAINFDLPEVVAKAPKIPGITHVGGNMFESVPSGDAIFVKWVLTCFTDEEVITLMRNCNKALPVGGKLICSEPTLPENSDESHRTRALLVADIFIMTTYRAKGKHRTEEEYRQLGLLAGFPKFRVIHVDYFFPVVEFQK
Experimental: Enzyme Assay. […] Following incubation at 30° C. for 30 minutes, the reactions were stopped by the addition of 10 μL of 10% (w/v) trichloroacetic acid containing 1 mM of methylated products as unlabeled carrier. Activated charcoal (38 mg.ml^-1) in 0.1 N acetic acid, 250 μL per assay, was added and centrifuged for five minutes. The radioactive product in the supernatant was quantified in 75% Ready Gel using a liquid scintillation counter (Beckman Instruments, Fullerton, Calif.). […] Kinetic Characterization. […] Kinetic constants were derived from the X and Y intercepts of a linear plot of s/v versus s drawn from triplicate assay results. Henderson, P J F (1993) Statistical analysis of enzyme kinetic data. In […]., Enzyme assays a practical approach, IRL Press, Oxford, pp. 276-316.

[2] = biological target: T1, L. latifolium NMTase; experiment: Effect of a thiol reagent on NMTase activities; format: biochemical; details: for % Activity DM: N,N-dimethyl β-alanine as methyl acceptor; for % Activity DM / % Activity MM / % Activity BA: mean ± SE, n=3; for % Activity MM: N-methyl β-alanine as methyl acceptor; for % Activity BA: β-alanine as methyl acceptor
Experimental: Enzyme Assay. […] The assay mixture contained 54 μL of enzyme preparation in a total volume of 100 μL containing 0.1 M Tris-HCl buffer pH 8.0, 2 mM DTT, 10 mM methyl acceptor, 100 μM AdoMet and 0.027 μM S-Adenosyl-L-[methyl-^3H]Met (200 nCi of radioactivity). Following incubation at 30° C. for 30 minutes, the reactions were stopped by the addition of 10 μL of 10% (w/v) trichloroacetic acid containing 1 mM of methylated products as unlabeled carrier. Activated charcoal (38 mg.ml^−1) in 0.1 N acetic acid, 250 μL per assay, was added and centrifuged for five minutes. The radioactive product in the supernatant was quantified in 75% Ready Gel using a liquid scintillation counter (Beckman Instruments, Fullerton, Calif.). The counting efficiency was 30%.
Effect of a Thiol Reagent. Protein purified using PEG precipitation was assayed with or without added DTT in the presence and absence of the thiol reagent p-hydroxymercuribenzoic acid.

[3] = 0.2 mM pHMB 10 min + 5 mM DTT for 30 min, relative to control
[4] = Minus DTT plus 0.2 mM pHMB, relative to control with 5 mM DTT

## Nc1ncnc2c1ncn2[C@@H]1O[C@H](CSCC[C@H](N)C(=O)O)[C@@H](O)[C@H]1O [AdoHCy, S-adenosyl-L-homocysteine]
[1]
  Inhibition of NMTase (in words): highly inhibitory
[1]; read-out: Concentration giving 50% inhibition of NMTase, 10 mM β-alanine and 100 μM Ado-Met
  IC50: 40 µM

## C[S+](CC[C@H](N)C(=O)[O-])C[C@H]1O[C@@H](n2cnc3c(N)ncnc32)[C@H](O)[C@@H]1O (stereo partly drawn) [Ado-Met, S-adenosyl-L-methionine]
[1]; at 10 mM β-alanine
  Concentration above which substrate inhibition was exhibited: above 200 μM

## O=C(O)c1cc[c]([Hg+])cc1.[OH-] [pHMB, p-hydroxymercuribenzoate]
[2]
  Inhibition of NMTase (in words): highly inhibited
  Reversibility of the inhibition by DTT: partially reversible
[2]; [3]
  % Activity DM: 55.2 ± 7.6%
  % Activity MM: 23.0 ± 2.9%
  % Activity BA: 22.6 ± 2.9%
[2]; [4]
  % Activity DM: 0.4 ± 0.2%
  % Activity MM: 2.4 ± 1.4%
  % Activity BA: 1.3 ± 0.7%
